From ChEMBL document CHEMBL6071209, “Design, Synthesis, and Biological Evaluation of a Series of Spiro Analogues as Novel HPK1 Inhibitors” (ACS Med Chem Lett, 2024)

Columns and labels:
[1] = Volume of distribution in BALB/c mouse at 1 mg/kg, iv measured upto 24 hrs by LC-MS/MS method; format: ADME, organism-based; settings: in vivo
[2] = Clearance in Beagle dog at 1 mg/kg, iv measured upto 24 hrs by LC-MS/MS method; format: ADME, organism-based, Canis lupus familiaris; settings: in vivo
[3] = Volume of distribution in Beagle dog at 1 mg/kg, iv measured upto 24 hrs by LC-MS/MS method; format: ADME, organism-based, Canis lupus familiaris; settings: in vivo
[4] = Bioavailability in Beagle dog at 1 mg/kg, iv measured upto 24 hrs by LC-MS/MS method; format: ADME, organism-based, Canis lupus familiaris; settings: in vivo
[5] = Volume of distribution in Sprague-Dawley rat at 1 mg/kg, iv measured upto 24 hrs by LC-MS/MS method; format: ADME, organism-based; settings: in vivo
[6] = mouse, in vivo, po, 10 mg/kg, 24 h
[7] = mouse, in vivo, iv, 1 mg/kg, 24 h
[8] = rat, in vivo, po, 10 mg/kg, 24 h
[9] = dog, in vivo, po, 2 mg/kg, 24 h
[10] = in vivo; settings: BALB/c, mouse, iv, 1 mg/kg
[11] = in vivo; settings: BALB/c, mouse, po, 10 mg/kg
[12] = in vivo; settings: Sprague-Dawley, rat, iv, 1 mg/kg
[13] = in vivo; settings: Sprague-Dawley, rat, iv, 1 mg/kg; remark: listed apart in the source
[14] = in vivo; settings: beagle, dog, po, 2 mg/kg
[15] = in vivo; settings: Sprague-Dawley, rat, iv, 1 mg/kg; remark: listed apart in the source
[16] = in vivo; settings: BALB/c, mouse, iv, 1 mg/kg; remark: listed apart in the source

| SMILES | Vd [1] [L/kg] | clearance [2] [mL/min/kg] | Vd [3] [L/kg] | bioavailability [4] [%] | Vd [5] [L/kg] | AUC/dose [6] [ng·h/mL] | F [7] [%] | AUC/dose [8] [ng·h/mL] | AUC/dose [9] [ng·h/mL] | clearance at 24 h [10] [mL/min/kg] | half-life at 24 h [11] [min] | clearance at 24 h [12] [mL/min/kg] | bioavailability at 24 h [13] [%] | half-life at 24 h [14] [min] | half-life at 24 h [15] [min] | bioavailability at 24 h [16] [%] |
| --- | --- | --- | --- | --- | --- | --- | --- | --- | --- | --- | --- | --- | --- | --- | --- | --- |
| CN(C)Cc1nc(Nc2ccc(-c3cnc4cc(F)ccn34)c3c2C(=O)NC3)ccc1C1CCOCC1 | 5 | 108 | 24.2 | 4.9 | 12.5 | 224.5 | 187 | 31.2 | 6.5 | 138 | 222 | 230 | 38 | 90 | – | – |
| COC1CCC2(CC1)c1ccc(Nc3ccc(-c4cnc5cc(F)ccn45)c4c3C(=O)NC4)nc1CN2C (configuration not stated) | – | – | – | – | – | – | – | 15.3 | – | – | – | – | – | – | 60 | – |
| O=C1NCc2c(-c3cnc4cc(F)ccn34)ccc(Nc3ccc4c(n3)CN(CCN3CC[C@@H](F)C3)C43CCOCC3)c21 | – | – | – | – | – | 290.2 | – | 43.5 | – | 28 | 84 | – | – | – | 246 | 50 |
